In patent US20250144056A1, “ANTIMICROBIAL HOST DEFENSE PEPTIDE-INDUCING COMPOSITIONS AND METHODS OF PRODUCTION AND USE THEREOF” (Board of Regents for the Oklahoma Agricultural and …, priority 2022, published 2025):

How the values were obtained:
IL-8 = experiment: RT-qPCR of IL-8 in HTC cells with or without LPS; assay type: cell-based, chicken
Method: (§1) Culture and stimulation of macrophages. Two different chicken macrophage cell lines, HTC (24) and HD11 (25), were kindly provided by Dr. Narayan C. Rath and Dr. Hyun Lillehoj of USDA-ARS and maintained in RPMI 1640 containing 10% heat-inactivated FBS, 100 U/ml penicillin, and 100 μg/ml streptomycin and subcultured every 3-4 days. After overnight seeding at 1.5×10^6 cells/well in 6-well cell culture plates, cells were treated with different concentrations of each compound for 24 h or with the indicated concentration of each compound for various lengths of time for dose-response and time-course experiments, respectively. To study the synergy between HMTi/DNMTi and HDACi, different concentrations of an HMTi or DNMTi were added to the cells in the presence or absence of an HDACi for 24 h, followed by RNA isolation and HDP gene expression analysis as described below. HTC cells were also stimulated with butyrate, BIX01294, or their combination for 24 h, followed by 3-h stimulation with 10 ng/ml LPS and subsequent expression analysis.
(§2) Total RNA extraction and gene expression analysis. Total RNA was extracted using RNAzol (Molecular Biology Research Center, Cincinnati, OH) according to the manufacturer's protocol. Gene expression was performed using reverse transcription-quantitative PCR (RT-qPCR) as previously described (27-29). Reverse transcription was performed with 300 ng of total RNA and Maxima® First Strand cDNA Synthesis Kit (ThermoFisher Scientific, Pittsburgh, PA). The cDNA was then diluted 10-fold with RNase-free water prior to real-time PCR using QuantiTect SYBR® Green PCR Kit (Qiagen, Valencia, CA) in 10-μl reactions using primers specific for HDP, barrier function, and inflammatory cytokine genes as described (27, 29, 30). PCR was run in CFX Connect Real-Time PCR System (Bio-Rad, Hercules, CA) using the following program: 95° C. for 10 min, followed by 40 cycles of 94° C. for 15 sec, 55° C. for 20 sec, and 72° C. for 30 sec. The specificity of PCR reactions was confirmed by the melting curve analysis. The glyceraldehyde-3-phosphate dehydrogenase (GAPDH) gene was used as the reference for data normalization. The fold changes in gene expression in the cells treated with individual compounds or in combinations were calculated relative to the cells treated with an equal volume of RPMI 1640 or DMSO using the ΔΔCt method (31).

AvBD8 = experiment: RT-qPCR of AvBD8 in HTC cells; assay type: cell-based, chicken; conditions: 2 mM butyrate and at least one concentration of BIX01294, 24 h (FIG. 5)
Method: (§3) Culture and stimulation of macrophages. Two different chicken macrophage cell lines, HTC (24) and HD11 (25), were kindly provided by Dr. Narayan C. Rath and Dr. Hyun Lillehoj of USDA-ARS and maintained in RPMI 1640 containing 10% heat-inactivated FBS, 100 U/ml penicillin, and 100 μg/ml streptomycin and subcultured every 3-4 days. After overnight seeding at 1.5×10^6 cells/well in 6-well cell culture plates, cells were treated with different concentrations of each compound for 24 h or with the indicated concentration of each compound for various lengths of time for dose-response and time-course experiments, respectively. […]
(§4) Total RNA extraction and gene expression analysis. […] Gene expression was performed using reverse transcription-quantitative PCR (RT-qPCR) as previously described (27-29). […] The cDNA was then diluted 10-fold with RNase-free water prior to real-time PCR using QuantiTect SYBR® Green PCR Kit (Qiagen, Valencia, CA) in 10-μl reactions using primers specific for HDP, barrier function, and inflammatory cytokine genes as described (27, 29, 30). […] The fold changes in gene expression in the cells treated with individual compounds or in combinations were calculated relative to the cells treated with an equal volume of RPMI 1640 or DMSO using the ΔΔCt method (31).

AvBD14 = experiment: RT-qPCR of AvBD14 in HTC cells; assay type: cell-based, chicken; conditions: 2 mM butyrate and at least one concentration of BIX01294, 24 h (FIG. 5)
Method: as §3, §4

AvBD2 = experiment: RT-qPCR of AvBD2 in HTC cells; assay type: cell-based, chicken; conditions: BIX01294 with 2 mM butyrate, 24 h (FIG. 5)
Method: as §3, §4

AvBD10 [1] = experiment: RT-qPCR of AvBD10 in HTC cells; assay type: cell-based, chicken; conditions: 2 mM butyrate and at least one concentration of BIX01294, 24 h (FIG. 5)
Method: as §3, §4

AvBD4 [2] = experiment: RT-qPCR of AvBD4 in HTC cells; assay type: cell-based, chicken; conditions: 2 mM butyrate and at least one concentration of BIX01294, 24 h (FIG. 5)
Method: as §3, §4

AvBD4 [3] = experiment: RT-qPCR of AvBD4 in HD11 macrophages; assay type: cell-based, chicken; conditions: HD11 cells, 5 μM compound with 2 mM butyrate, 24 h (FIG. 6, Panel C)
Method: as §3, §4

AvBD9 mRNA expression = experiment: RT-qPCR of AvBD9 mRNA expression in HTC macrophage cells; assay type: cell-based, chicken
Method: as §1, §2

chicken HDP genes = experiment: RT-qPCR of multiple HDP genes in HTC cells; assay type: cell-based
Method: as §3, §4

AvBD9 = experiment: RT-qPCR of AvBD9 in HD11 macrophages; assay type: cell-based, chicken; conditions: HD11 cells, 5 μM compound with 2 mM butyrate, 24 h (FIG. 6, Panel A)
Method: as §3, §4

AvBD9 gene promoter = experiment: HTC/AvBD9-luc luciferase reporter assay; assay type: cell-based, chicken
Method: Culture and stimulation of a stable HTC/AvBD9-luc luciferase reporter cell line. A stable HTC/AvBD9-luc cell line was generated by cloning a 2.0-Kb AvBD9 gene promoter fragment into a lentiviral luciferase reporter vector, pGreenFire1-mCMV-Puro (System Biosciences, Palo Alto, CA) and then transfected into HTC cells as previously described (22). The stable cell line was maintained in RPMI 1640 containing 10% heat-inactivated FBS, 100 U/ml penicillin, 100 μg/mL streptomycin, and 0.5 μg/mL puromycin and subcultured every 3-4 days. To measure transcriptional activation of the AvBD9 gene promoter in response to different epigenetic compounds, cells were seeded at 4×10^4 cells/well in white 96-well tissue culture plates and stimulated in duplicate with different compounds individually or in combination for 24 h. An equal amount of a solvent was applied as a negative control. Luciferase activity was measured using STEADY-GLO® Luciferase Assay System (Promega, Madison, WI) on an L-Max II luminescence microplate reader (Molecular Devices, Sunnyvale, CA). Cell viabilities were assessed by adding alamarBlue Reagent (ThermoFisher, Waltham, MA) to cell culture 4 h before luciferase assay. Relative luciferase activity was determined for each well after normalization to the cell viability as previously described (22).

AvBD10 [4] = experiment: RT-qPCR of AvBD10 in HD11 macrophages; assay type: cell-based, chicken; conditions: HD11 cells, 5 μM compound with 2 mM butyrate, 24 h (FIG. 6, Panel D)
Method: as §3, §4

CLDN1 = experiment: RT-qPCR of CLDN1 (claudin 1) in HTC cells; assay type: cell-based, chicken
Method: as §1, §2

COc1cc2nc(N3CCCN(C)CC3)nc(NC3CCN(Cc4ccccc4)CC3)c2cc1OC [BIX01294]
LPS-induced IL-8 expression level, combination with butyrate (IL-8; 5 μM BIX01294 + 2 mM butyrate 24 h, then 10 ng/ml LPS 3 h (FIG. 8, Panel E)): remained elevated
IL-8 synthesis, combination with butyrate (IL-8; 5 μM BIX01294 + 2 mM butyrate, without LPS (FIG. 8, Panel E)): tended to have a synergistic effect
effect on LPS-induced IL-8 expression (IL-8; compound alone 24 h, then 10 ng/ml LPS 3 h (FIG. 8, Panel E)): potentiated
activity in inducing gene expression of IL-8 (IL-8; compound alone (2 mM butyrate or 5 μM BIX01294), without LPS (FIG. 8, Panel E)): no or weak activity
AvBD8 induction, combination with butyrate (AvBD8): greater than 100 fold
AvBD14 induction, combination with butyrate (AvBD14): greater than 100 fold
AvBD2 upregulation, combination with butyrate (AvBD2): 2- to 3 fold
AvBD10 induction, combination with butyrate (AvBD10 [1]): greater than 100 fold
AvBD4 induction, combination with butyrate (AvBD4 [2]): greater than 100 fold
AvBD4 induction, combination with butyrate (AvBD4 [3]): synergistically induced, albeit at lower magnitudes
impact of LPS on the AvBD9-inducing synergy with butyrate (AvBD9 mRNA expression; 5 μM BIX01294 + 2 mM butyrate 24 h, then 10 ng/ml LPS 3 h (FIG. 8, Panel C)): no impact
additional increase in AvBD9 gene expression over BIX01294 alone, combination with mocetinostat (AvBD9 mRNA expression; 5 μM BIX01294 in combination with 2.5 μM mocetinostat, 24 h (FIG. 7, Panel A)): 23 fold
additional increase in AvBD9 gene expression over BIX01294 alone, combination with butyrate (AvBD9 mRNA expression; 5 μM BIX01294 in combination with 2 mM butyrate, 24 h (FIG. 7, Panel A)): 26 fold
additional increase in AvBD9 gene expression over BIX01294 alone, combination with vorinostat (AvBD9 mRNA expression; 5 μM BIX01294 in combination with vorinostat (SAHA), 24 h (FIG. 7, Panel A)): 69 fold
additional increase in AvBD9 expression of the butyrate combination over compound alone (AvBD9 mRNA expression; 20 μM compound + 2 mM butyrate versus 20 μM compound alone): 54 fold
increase in AvBD9 mRNA expression (AvBD9 mRNA expression; 20 μM compound alone, 24 h (FIG. 2, Panel B), peak): 175 fold
induction of AvBD9 expression (AvBD9 mRNA expression; 20 μM compound alone, 24 h (FIG. 4, Panels A, B)): 207 fold
increase in AvBD9 expression, combination with butyrate (AvBD9 mRNA expression; 20 μM compound in combination with 2 mM butyrate, 24 h (FIG. 4, Panels A, B)): 11,165 fold
synergy with butyrate in AvBD9 mRNA expression (AvBD9 mRNA expression; indicated concentrations in combination with 2 mM butyrate, 24 h (FIG. 4)): concentration-dependent increase
synergy in AvBD9 induction with HDACi (AvBD9 mRNA expression; with any of three HDACi (vorinostat, butyrate, mocetinostat), 24 h (FIG. 7, Panel A)): dramatic synergy
induction of the HDP genes detectable in HTC cells, combination with butyrate (chicken HDP genes; BIX01294 with 2 mM butyrate, 24 h (FIG. 5)): all were synergistically induced
induction of most other HDP genes, combination with HDACi (chicken HDP genes; BIX01294 with any of the three HDACi (vorinostat, butyrate, mocetinostat), 24 h (FIG. 7, Panel B)): synergistically induced
synergy in AvBD9 induction with butyrate (AvBD9): drastic synergy
activation of the AvBD9 gene promoter (relative luciferase activity) (AvBD9 gene promoter; compound alone, different concentrations, 24 h (FIG. 2, Panel A)): concentration-dependent activation
synergy in luciferase activity with butyrate (AvBD9 gene promoter; different concentrations in combination with 2 mM butyrate, 24 h (FIG. 3)): marked dose-dependent increase in the synergy
AvBD10 induction, combination with butyrate (AvBD10 [4]): synergistically induced, albeit at lower magnitudes
CLDN1 synergy with butyrate after subsequent LPS treatment (CLDN1; 5 μM BIX01294 + 2 mM butyrate 24 h, then 10 ng/ml LPS 3 h (FIG. 8, Panel A)): further enhanced
synergy in CLDN1 expression with butyrate (CLDN1; 5 μM BIX01294 + 2 mM butyrate, 24 h (FIG. 8, Panel A)): marked synergy
activity in increasing CLDN1 expression (CLDN1; 5 μM BIX01294 alone, 24 h (FIG. 8, Panel A)): minimum activity
